# From patent US12398154B2, “Azaquinazoline pan-KRas inhibitors” (Mirati Therapeutics, Inc., priority 2020, dated 2025)
# pIC50: −log10 of the molar value.
# Tests used:
# [1] = target: KRas G12V (Homo sapiens, UniProt P01116, G12V); assay: biochemical;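 also: KRas binding measured by TR-FRET displacement at room temperature, IC50 fitted from percent of control values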
# Method: (§1) The ability of a compound to bind to KRas was measured using a TR-FRET displacement assay. […] After a 60-minute incubation at room temperature, the reaction was measured using a BMG LABTECH CLARIO star Plus via TR-FRET. […] The POC values were fit to a 4-parameter IC50 equation and the IC50 value reported.
# [2] = tested on: pERK in ASPC1 cells; assay: Inhibition of KRas phosphorylation of ERK (Cisbio HTRF pERK assay); conditions: Homo sapiens, ASPC1, read-out: Inhibition (HTRF IC50) of KRas-mediated Phosphorylation of ERK, AsPC-1
# [3] = tested on: pERK in HCT116 cells; assay: as above; conditions: Homo sapiens, HCT-116, read-out: Inhibition (HTRF IC50) of KRas-mediated Phosphorylation of ERK, HCT116
# Method: (§2) To harvest cells from flask using 0.05% Trypsin/EDTA solution. Add 10 mL of media to stop trypsinizing. Pipette the cells into a conical bottom 50 mL centrifuge tube and centrifuge 5 min×1000 rpm. • 2. Re-suspend the cell pellet in media, take a cell count, and then adjust the cell density using fresh media. • 3. Seed 6,000 cells into cell culture plate with 50 μL media. […] Incubate cell plate overnight in a 37° C., 5% CO2 incubator. • Compound titrations • 1. Use Tecan to complete the compound addition. Compounds start from 10 uM top, 3-fold dilution, and 10 doses. The final DMSO concentration is 0.8%. Dispensed 0.2 uM Trametinib as Min control. • 2. Incubate cell plate for 3 hrs in the incubator. • Detection with cisbio pERK HTRF kit • 1. […] At the end of the compound treatment, flick-off the media. • 3. Add 35 μL of lysis buffer per well using a Multidrop Combi. Then place on a plate agitator shaking at 300 rpm at 4° C. for 40 mins. • 4. Make up the HTRF antibody buffer. For each assay plate, mix 50 μL of d2-conjugate antibody with 950 μL of detection buffer. Similarly, mix 50 μL of Cryptate antibody with 950 μL of detection buffer. Then mix the two diluted antibodies together. • 5. Dispense 3.4 μL the antibody buffer to wells of an empty assay plate. Seal the plate and centrifuge plate 30 sec×1000 rpm. • 6. At the end of the 4° C. lysis, centrifuge the lysate plates 3 mins×1500 rpm. • 7. Use the Bravo to transfer 13.6 μL of lysate from cell culture plate to assay plate.
# (§3) Then incubate assay plate for 2 hrs at room temperature. […] At the end of incubation, read plate on the Envision after centrifuging plate 30 sec× • 1000 rpm.
# [4] = tested on: pERK in MKN1 cells; assay: as above; conditions: Homo sapiens, MKN-1, 3 h, read-out: Inhibition (HTRF IC50) of KRas-mediated Phosphorylation of ERK, MKN1
# Method: as §2, §3
# [5] = target: KRas WT (Homo sapiens, UniProt P01116); assay: biochemical;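 also: binding to KRas read as TR-FRET displacement after a one-hour room-temperature incubation, IC50 derived from percent-of-control values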
# Method: as §1
# [6] = target: KRas G12C (Homo sapiens, UniProt P01116, G12C); assay: biochemical;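 also: binding to KRas assessed by TR-FRET displacement after one hour incubation at room temperature, potency fitted from percent-of-control values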
# Method: as §1
# [7] = tested on: pERK in PSN1 cells; assay: Inhibition of KRas phosphorylation of ERK (Cisbio HTRF pERK assay); conditions: Homo sapiens, PSN1, 3 h, read-out: Inhibition (HTRF IC50) of KRas-mediated Phosphorylation of ERK, PSN1
# [8] = target: KRas G12D (Homo sapiens, UniProt P01116, G12D); assay: biochemical;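 also: TR-FRET displacement binding assay on KRas, read after a one-hour incubation at room temperature, IC50 fitted from percent-of-control values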
# Method: as §1
# [9] = target: KRas G12R (Homo sapiens, UniProt P01116, G12R); assay: biochemical;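 also: TR-FRET displacement assay of compound binding to KRas, read after one hour at room temperature, potency from a four-parameter fit of percent-of-control values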
# Method: as §1
# [10] = tested on: pERK in H727 cells; assay: Inhibition of KRas phosphorylation of ERK (Cisbio HTRF pERK assay); conditions: Homo sapiens, NCI-H727, read-out: Inhibition (HTRF IC50) of KRas-mediated Phosphorylation of ERK, H727
# Sequence of KRas G12C (P01116 1-169 isoform P01116-2 G12C): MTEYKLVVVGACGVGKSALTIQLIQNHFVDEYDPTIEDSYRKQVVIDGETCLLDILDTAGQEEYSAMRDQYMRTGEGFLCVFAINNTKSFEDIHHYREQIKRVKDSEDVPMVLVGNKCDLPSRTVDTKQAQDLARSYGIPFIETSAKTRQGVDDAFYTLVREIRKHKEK
# Sequence of KRas WT (P01116 1-169 isoform P01116-2): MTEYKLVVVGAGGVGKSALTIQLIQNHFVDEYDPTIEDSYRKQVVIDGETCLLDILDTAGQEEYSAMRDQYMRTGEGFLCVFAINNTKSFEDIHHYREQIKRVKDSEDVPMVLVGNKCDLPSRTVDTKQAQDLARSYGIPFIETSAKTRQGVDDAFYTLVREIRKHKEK
# Sequence of KRas G12D (P01116 1-169 isoform P01116-2 G12D): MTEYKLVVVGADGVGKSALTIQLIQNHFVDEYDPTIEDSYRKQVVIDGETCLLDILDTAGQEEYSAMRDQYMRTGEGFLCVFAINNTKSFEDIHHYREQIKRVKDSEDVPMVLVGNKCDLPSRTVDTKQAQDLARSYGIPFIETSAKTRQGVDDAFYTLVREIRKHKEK
# Sequence of KRas G12V (P01116 1-169 isoform P01116-2 G12V): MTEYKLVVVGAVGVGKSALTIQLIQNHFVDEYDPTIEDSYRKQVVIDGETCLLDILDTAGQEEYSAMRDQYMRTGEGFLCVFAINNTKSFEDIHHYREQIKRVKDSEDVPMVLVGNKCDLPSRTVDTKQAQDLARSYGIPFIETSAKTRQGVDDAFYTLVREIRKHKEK
# Sequence of KRas G12R (P01116 1-169 isoform P01116-2 G12R): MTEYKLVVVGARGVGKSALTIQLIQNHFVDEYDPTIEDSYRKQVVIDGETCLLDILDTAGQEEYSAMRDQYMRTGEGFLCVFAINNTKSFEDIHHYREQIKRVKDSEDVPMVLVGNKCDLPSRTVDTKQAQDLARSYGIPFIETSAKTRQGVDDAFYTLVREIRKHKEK
SMILES,pIC50 [1],pIC50 [2],pIC50 [3],pIC50 [4],pIC50 [5],pIC50 [6],pIC50 [7],pIC50 [8],pIC50 [9],pIC50 [10]
"CCc1c(F)ccc2cc(O)cc(-c3ncc4c(N5CCC[C@]6(C5)C[C@](C)(O)C6)nc(OCC56CCCN5CCC6)nc4c3F)c12 [Example 328, trans-6-(7-(8-ethyl-7-fluoro-3-hydroxynaphthalen-1-yl)-8-fluoro-2-((hexahydro-1H-pyrrolizin-7a-yl)methoxy)pyrido[4,3-d]pyrimidin-4-yl)-2-methyl-6-azaspiro[3.5]nonan-2-ol]",8.22,5.76,5.89,6.57,8.05,8.05,≤ 5.00,8.05,7.74,
"CCc1c(F)ccc2cc(O)cc(-c3ncc4c(N5CCC[C@]6(C5)C[C@@](C)(O)C6)nc(OCC56CCCN5CCC6)nc4c3F)c12 [Example 329, cis-6-(7-(8-ethyl-7-fluoro-3-hydroxynaphthalen-1-yl)-8-fluoro-2-((hexahydro-1H-pyrrolizin-7a-yl)methoxy)pyrido[4,3-d]pyrimidin-4-yl)-2-methyl-6-azaspiro[3.5]nonan-2-ol]",5.75,≤ 4.70,≤ 4.70,≤ 5.00,5.99,5.58,≤ 5.00,5.18,5.47,
"CCc1c(F)ccc2cc(O)cc(-c3ncc4c(NCCN5C(=O)CNC5=O)nc(OC[C@@]56CCCN5C[C@H](F)C6)nc4c3F)c12 [Example 379, 3-(2-((7-(8-ethyl-7-fluoro-3-hydroxynaphthalen-1-yl)-8-fluoro-2-(((2R,7aS)-2-fluorohexahydro-1H-pyrrolizin-7a-yl)methoxy)pyrido[4,3-d]pyrimidin-4-yl)amino)ethyl)imidazolidine-2,4-dione]",7.85,≤ 4.70,≤ 4.70,≤ 5.00,7.59,7.68,≤ 5.00,6.95,7.47,
"CCc1c(F)ccc2cc(O)cc(-c3ncc4c(N5CCN6C(=O)NCC6C5)nc(OC[C@@]56CCCN5C[C@H](F)C6)nc4c3F)c12 (stereo partly drawn) [Example 380, 7-(7-(8-ethyl-7-fluoro-3-hydroxynaphthalen-1-yl)-8-fluoro-2-(((2R,7aS)-2-fluorohexahydro-1H-pyrrolizin-7a-yl)methoxy)pyrido[4,3-d]pyrimidin-4-yl)hexahydroimidazo[1,5-a]pyrazin-3(2H)-one]",7.29,≤ 4.70,5.49,5.96,7.74,7.27,≤ 5.00,6.56,7.15,
"CCc1c(F)ccc2cc(O)cc(-c3ncc4c(N5CCN6C(=O)NC(=O)C6C5)nc(OC[C@@]56CCCN5C[C@H](F)C6)nc4c3F)c12 (stereo partly drawn) [Example 381, 7-(7-(8-ethyl-7-fluoro-3-hydroxynaphthalen-1-yl)-8-fluoro-2-(((2R,7aS)-2-fluorohexahydro-1H-pyrrolizin-7a-yl)methoxy)pyrido[4,3-d]pyrimidin-4-yl) tetrahydroimidazo[1,5-a]pyrazine-1,3(2H,5H)-dione]",7.96,≤ 4.70,6.13,6.55,8.30,7.80,≤ 5.00,7.64,7.68,
"C#Cc1c(F)ccc2cc(O)cc(-c3ncc4c(N5CCCC6(C5)NC(=O)NC6=O)nc(OC[C@@]56CCCN5C[C@H](F)C6)nc4c3F)c12 (stereo partly drawn) [Example 397, 7-(7-(8-ethynyl-7-fluoro-3-hydroxynaphthalen-1-yl)-8-fluoro-2-(((2R,7aS)-2-fluorohexahydro-1H-pyrrolizin-7a-yl)methoxy)pyrido[4,3-d]pyrimidin-4-yl)-1,3,7-triazaspiro[4.5]decane-2,4-dione]",≥ 8.70,6.04,5.84,,,,,≥ 8.70,≥ 8.70,6.00
